For data set [1], the system named is monoamine transporters, MATs (SERT, NET, DAT, VMAT2). In words: Monoamine uptake inhibition, monoamine transporters collectively. Type of data set: cell-based. Particulars: in words.
A short description of data set [2]: Oral bioavailability in rats, Method B. Type of data set: in vivo. The note with it: Sprague Dawley rats; for AUC(0-t) / half-life / Cmax: male, rat; for AUC(0-t) / half-life / Cmax / F: plasma, Method B; for F: 10 mg/kg. The protocol: Animals. Male Sprague Dawley rats were used in these studies. Animals were randomly assigned to treatment groups and were fasted overnight before oral dosing.
Drugs. Test compounds were dissolved in a vehicle consisting of normal saline (compounds 14R, 88R, 29rac, and 27rac) or a mixture of 5% v/v N-methyl-2-pyrrolidone, 5% v/v Solutol HS-15, and 90% v/v normal saline (compounds 84R and 84S). They were then administered intravenously (iv) or orally (po) at a dose of 10 mg/kg (calculated based on freebase) and at a volume of 5 mL/kg body weight. Compounds were tested as the racemates (indicated by “rac” nomenclature) or pure enantiomers (indicated by “R” or “S” nomenclature).
Sample Collection and Bioanalysis. Blood samples (approximately 120 μL) were collected under light isoflurane anesthesia (Surgivet®) from the retro orbital plexus at 0.08, 0.25, 0.5, 1, 2, 4, 8, and 24 h (total 8 time points/rat, 4 rats per administration route per compound). Immediately after blood collection, plasma was harvested by centrifugation at 4000 rpm for 10 min at 4° C. and samples were stored at −70±10° C. until bioanalysis. For bioanalysis, 25 μL aliquots of plasma study samples or spiked plasma calibration standards were added to individual pre-labeled micro-centrifuge tubes followed by 100 μL of an internal standard solution (glipizide, 500 ng/mL in acetonitrile) except for blanks, where 100 μL of acetonitrile was added. Samples were vortexed for 5 minutes and then centrifuged for 10 minutes at 4000 rpm at 4° C. Following centrifugation, 100 μL of each clear supernatant was transferred to a 96 well plate and analyzed with a fit-for-purpose LC-MS/MS method, with authentic samples of each analyte used for calibration and identification. In the case of compounds 14R and 88R, their metabolite 11R was also quantified in plasma samples.
(§1) Data Analysis. Pharmacokinetic parameters were estimated using the non-compartmental analysis tool of Phoenix® WinNonlin software (Ver 8.0).

The target of data set [3] is T1, norepinephrine transporter (NET) (Homo sapiens, UniProt P23975).
T1 construct: expressed in transfected cells; host or cells: HEK293
In words: Fluorescent substrate uptake inhibition, NET. Type of data set: cell-based. Particulars: 10 μM, HEK293 cells expressing NET.

The nature of data set [4]: Oral bioavailability in mice, Method B. Type of data set: in vivo. The note with it: CD-1 mice; for AUC0-inf (iv) / AUC0-last (po) / AUC(0-inf): Method B: values represent AUC0-last (footnote); for F: 10 mg/kg; for half-life / Cmax / AUC(0-inf): male, mouse. The procedure:
Animals. Male CD-1 mice were used in these studies Animals were randomly assigned to treatment groups and were fasted for 4 h before oral dosing.
Drugs. Test compounds were dissolved in a vehicle consisting of normal saline (compounds 19S and 88R) or a mixture of 5% v/v N-methyl-2-pyrrolidone, 5% v/v Solutol HS-15, and 90% v/v normal saline (compounds 11S, 11R, 114S, and 114R). They were then administered intravenously (iv) or orally (po) at a dose of 10 mg/kg (calculated based on freebase) and at a volume of 5 mL/kg body weight. Compounds were tested as the racemates (indicated by “rac” nomenclature) or pure enantiomers (indicated by “R” or “S” nomenclature).
Sample Collection and Bioanalysis. Blood samples (approximately 60 μL) were collected under light isoflurane anesthesia (Surgivet®) from the retro orbital plexus at 0.08, 0.25, 0.5, 1, 2, 4, 8, and 24 h (4 animals per time point) Immediately after blood collection, plasma was harvested by centrifugation at 4000 rpm for 10 min at 4° C. and samples were stored at −70±10° C. until bioanalysis. Following blood collection, animals were immediately sacrificed, the abdominal vena-cava was cut open, and the whole body was perfused from the heart using 10 mL of normal saline, and brain samples were collected from all animals After isolation, brain samples were rinsed three times in ice-cold normal saline (for 5-10 seconds/rinse using ˜5-10 mL normal saline in disposable petri dish for each rinse) and dried on blotting paper. Brain samples were homogenized using ice-cold phosphate-buffered saline (pH 7.4). Total homogenate volume was three times the tissue weight. All homogenates were stored at −70±10° C. until bioanalysis. For bioanalysis, 25 μL aliquots of plasma/brain study samples or spiked plasma/brain calibration standards were added to individual pre-labeled micro-centrifuge tubes followed by 100 μL of an internal standard solution (glipizide, 500 ng/mL in acetonitrile) except for blanks, where 100 μL of acetonitrile was added. Samples were vortexed for 5 minutes and then centrifuged for 10 minutes at 4000 rpm at 4° C. Following centrifugation, 100 μL of each clear supernatant was transferred to a 96 well plate and analyzed with a fit-for-purpose LC-MS/MS method, with authentic samples of each analyte used for calibration and identification.
as §1

The mark [5] stands for this setting: 10 mg/kg iv, read-out: AUC0-last (iv) (converted).
The mark [6] stands for this setting: 10 mg/kg iv, read-out: t1/2 (iv).
The mark [7] stands for this setting: 10 mg/kg po, read-out: AUC0-last (po) (converted).
Where [8] appears, read: 10 mg/kg po, read-out: t1/2 (po).
Where [9] appears, read: calculated based on brain exposure (AUC0-last), Method B.
Where [10] appears, read: brain, 10 mg/kg iv, Method B, read-out: t1/2 (iv).
[11] abbreviates: plasma, 10 mg/kg iv, read-out: AUC0-inf (iv) (converted).
Setting [12] is: plasma, 10 mg/kg iv, Method B, read-out: t1/2 (iv).
Where [13] appears, read: plasma, 10 mg/kg po, read-out: AUC0-inf (po) (converted).
[14] abbreviates: plasma, Method B: based on AUC0-last.

Like-named read-outs stand apart in the source and are kept apart here.

The values that follow come from patent US11344510B2, “Arylcyclohexylamine derivatives and their use in the treatment of psychiatric disorders” (Gilgamesh Pharmaceuticals, Inc., priority 2019, dated 2022).

One may read the Cmax as the maximum level reached in the sampled fluid or tissue. The term inhibition denotes the change of the read-out against control, counted positive when it falls. Higher therefore signals strong suppression.

T1 sequence (P23975 whole entry, species assumed): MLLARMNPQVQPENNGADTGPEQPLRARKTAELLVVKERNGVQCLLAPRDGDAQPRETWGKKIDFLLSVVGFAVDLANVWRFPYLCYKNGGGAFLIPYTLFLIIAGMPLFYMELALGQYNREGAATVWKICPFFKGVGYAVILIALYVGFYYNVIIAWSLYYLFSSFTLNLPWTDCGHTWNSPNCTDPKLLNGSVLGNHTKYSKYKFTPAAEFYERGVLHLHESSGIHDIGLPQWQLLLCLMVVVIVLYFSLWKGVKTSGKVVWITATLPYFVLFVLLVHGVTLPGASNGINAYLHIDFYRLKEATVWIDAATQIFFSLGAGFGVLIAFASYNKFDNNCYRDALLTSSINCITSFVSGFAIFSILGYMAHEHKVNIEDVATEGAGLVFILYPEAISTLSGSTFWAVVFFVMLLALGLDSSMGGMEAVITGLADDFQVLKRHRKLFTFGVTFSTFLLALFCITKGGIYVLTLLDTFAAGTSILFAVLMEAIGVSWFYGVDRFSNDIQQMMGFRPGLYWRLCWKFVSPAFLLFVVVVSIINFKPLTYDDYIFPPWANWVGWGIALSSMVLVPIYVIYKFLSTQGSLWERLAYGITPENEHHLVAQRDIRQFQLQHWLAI

Consider `[2H]C([2H])([2H])N[C@@]1(c2ccccc2)CCCCC1=O` [Compound 88R, (R)-2-((methyl-d3)amino)-2-phenylcyclohexan-1-one], for which the “selectivity for NMDAR (over MATs)” value in data set [1] was “greater selectivity for NMDAR”. The “formation of the metabolite 11R compared to 14R after oral administration” value in data set [2] (10 mg/kg po) is reported as “reduced”. The figures for the AUC(0-t) in data set [2] (setting [5]) and in data set [2] (setting [7]) were 1670 ng·h/mL and 335 ng·h/mL, respectively. The half-life in data set [2] (setting [6]) came out at 59.4 min; in data set [2] (setting [8]), 45.6 min; in data set [4] (setting [10]) it was 36 min; in data set [4] (brain, 10 mg/kg po, Method B, read-out: t1/2 (po)) it was 79.8 min; in data set [4] (setting [12]), 34.2 min; in data set [4] (plasma, 10 mg/kg po, Method B, read-out: t1/2 (po)) it was 82.8 min. The Cmax in data set [2] (10 mg/kg po) was determined as 393 ng/mL; in data set [4] (brain, 10 mg/kg po, Method B), 3100 ng/g; in data set [4] (plasma, 10 mg/kg po, Method B) it was 621 ng/mL. Besides, the F is reported as 20% in data set [2], 43% in data set [4] (setting [9]) and 47% in data set [4] (setting [14]). In data set [3], this compound came in with an inhibition at 10 µM of 10.6%. The “AUC0-inf (iv)” value in data set [4] (brain, 10 mg/kg iv) was 334,518 ng*min/g. Also, in data set [4] (brain, 10 mg/kg po), the “AUC0-last (po)” value is on record as 143,445 ng*min/g. In addition, the AUC(0-inf) was 1530 ng·h/mL in data set [4] (setting [11]) and 718 ng·h/mL in data set [4] (setting [13]).

On to `N[C@]1(c2ccccc2)CCCCC1=O` [Compound 11S, (S)-2-amino-2-phenyl-cyclohexan-1-one], for which the “selectivity for NMDAR (over MATs)” value in data set [1] is “greater selectivity for NMDAR”. Moreover, 10 µM produced 14.8% inhibition in data set [3]. Further, in data set [4] (brain, 10 mg/kg iv), the “AUC0-inf (iv)” value was 434,023 ng*min/g. The “AUC0-last (po)” value in data set [4] (brain, 10 mg/kg po) is recorded as 292,247 ng*min/g. Further, the F in data set [4] (setting [9]) is given as 67%; in data set [4] (setting [14]) it was 123%. Also, the half-life in data set [4] (setting [10]) was 42 min; in data set [4] (setting [12]) it was 63.6 min. Besides, the Cmax in data set [4] (brain, 10 mg/kg po, Method B) is 2190 ng/g; in data set [4] (plasma, 10 mg/kg po, Method B), 2130 ng/mL. For the same compound, the AUC(0-inf) in data set [4] (setting [11]) is 3420 ng·h/mL; in data set [4] (setting [13]) it was 4200 ng·h/mL.

For `COCCNC1(c2ccccc2)CCCCC1=O` (racemic) [Compound 29rac, 2-((2-methoxyethyl)amino)-2-phenylcyclohexan-1-one], in data set [1], the “selectivity for NMDAR (over MATs)” value is on record as “greater selectivity for NMDAR”. The AUC(0-t) in data set [2] (setting [5]) is 1710 ng·h/mL; in data set [2] (setting [7]) it was 353 ng·h/mL. Moreover, the results for the half-life in data set [2] (setting [6]) and in data set [2] (setting [8]) were 66 min and 69 min, respectively. The compound also displayed a Cmax in data set [2] (10 mg/kg po) of 321 ng/mL. The same compound gave a F in data set [2] of 21%.

`CN[C@@]1(c2ccccc2)CCCCC1=O` [Compound 14R, (R)-2-(methylamino)-2-phenylcyclohexan-1-one]: the “selectivity for NMDAR (over MATs)” value in data set [1] is “greater selectivity for NMDAR”. In addition, the results for the AUC(0-t) in data set [2] (setting [5]) and in data set [2] (setting [7]) were 1960 ng·h/mL and 237 ng·h/mL, respectively. Also, the half-life in data set [2] (setting [6]) turned out to be 37.8 min; in data set [2] (setting [8]), 30.6 min. This compound registered a Cmax in data set [2] (10 mg/kg po) of 235 ng/mL. The compound further yielded a F in data set [2] of 12%. In data set [3], this compound registered an inhibition at 10 µM of 1.7%.
